Entries after “also recorded” stand apart in the source; their conditions may differ. Like-named read-outs stand apart in the source and are kept apart here.
Experiments:
[1] = target: T1, FTO (Homo sapiens (Human), UniProt Q9C0B1); assay: Fluorescence enzymatic inhibition assay (m6A7-Broccoli RNA / DFHBI-1T) against FTO; type: biochemical; conditions: for IC50: read-out: Enzymatic IC50 FTO; for selectivity between FTO and ALKBH5: comparison of enzymatic IC50 values
Method: In order to determine their efficacy as FTO inhibitors, the compounds were screened by a fluorescence enzymatic inhibition assay developed previously by the Jaffrey lab.^44 Briefly, a nonfluorescent methylated RNA substrate termed “m6A7-Broccoli” is incubated with FTO in the presence of 2-oxoglutarate (300 μM), (NH4)2Fe(SO4)2·6H2O (300 μM), and L-ascorbate (2 mM) for 2 hours at room temperature in reaction buffer (50 mM NaHEPES, pH 6).
(§1) Inhibitors were added in concentrations ranging from 0.008-40 μM; all inhibitors were dissolved in DMSO and added to a final concentration of 0.2% DMSO. […] After incubation at room temperature for 2 hours, the plates were left at 4° C. overnight (16 hours) to allow DFHBI-1T to bind to A7-Broccoli RNA. […] Sigmoidal dose-response curves were fitted in GraphPad Prism 6. All assays were performed in triplicate, with additional repetitions added as necessary.

[2] = target: T2, ALKBH5 (Homo sapiens (Human), UniProt Q6P6C2); assay: Fluorescence enzymatic inhibition assay (m6A7-Broccoli RNA / DFHBI-1T) against ALKBH5; type: biochemical; conditions: for IC50: read-out: Enzymatic IC50 ALKBH5
Method: as §1

[3] = target: T2, ALKBH5; assay: Michaelis-Menten kinetics against ALKBH5; type: biochemical
[4] = tested on: B16 cells; assay: B16 cell proliferation assay with ALKBH5 inhibitor; type: cell-based, mouse; conditions: 10, 30 and 50 μM ALKBH5 inhibitor vs DMSO
Method: B16 cells were plated at a density of 2000/well in 96-well plates in triplicate and incubated for 0, 2, 4, or 6 days before cell numbers were determined by manual counting or by using a CellTiter AQueous One Solution Cell Proliferation Assay kit (Promega).
Our results thus far indicate that loss f-m6A demethylase Alkbh5, in B16 melanoma cells, potentiates the efficacy of GVAX/anti-PD-1 therapy. To identify clinically relevant pharmacological inhibitors of Alkbh5, we have identified a specific inhibitor of ALKBH5, named ALK-04, by in silico screening of compounds using the X-ray crystal structure of ALKBH5 (PDB ID code 4NRO) and by performing structure-activity relationship studies on a library of synthesized compounds. […] Next, we compared tumor growth of control and inhibitor-treated mice during immunotherapy.

[5] = tested on: B16 melanoma tumors; assay: B16 melanoma mouse model, GVAX/anti-PD-1 immunotherapy with ALKBH5 inhibitor; type: in vivo; conditions: combined with PD-1 Ab and GVAX, vs control
Method: Animal studies and procedures were approved by the UCSD Institutional Animal Care and use Committee. Female C57BL/6J wild-type mice were obtained from The Jackson Laboratory and housed in the UCSD specific-pathogen free facility. 86.129S2-Tcratm1Mcrn/J (Tcra+) mice, which are CDC and CDB· T cell deficient, were obtained from The Jackson Laboratory and bred on-site. For the standard protocol, mice (aged 9-12 weeks at use) were injected subcutaneously (s.c.) with 5×10^5 B16 cells (NTC control, Fto-KO, or Alkbh5-KO, generated as described below) into the left flank on day 0, and then injected with 1 OE irradiated (100 GY) BIG-GM CSF cells (GVAX) into the opposite flank on days 1 and 4 to elicit an anti-tumor immune response. Mice were then injected intraperitoneally (i p.) with 10 mg/kg (−200 pgimouse) of rat monoclonal anti-mouse RD-I Ab (Bio X Cell, clone 29F. IA 12) on the days as indicated on the figures. For PD-1 Ab treatment alone, mice were implanted with B16 cells and treated with antibody on day 6, 9 and 12. For the Treg depletion experiments, mice were injected as described above and were additionally injected i.p. vittl rat anti-mouse CD25 Ab (Bio X Cell, clone 7D4) on day 11. Tumors were measured every 3 days beginning on day 7. […]

[6] = elogD / log D determination; conditions: Table 700 compounds
[7] = target: T2, ALKBH5; conditions: reported from Huang et. al 2019; read-out: Enzymatic IC50 ALKBH5; cited from earlier work
[8] = tested on: MONOMAC6 and NB4 cells; conditions: Huang et. al; cited from earlier work
[9] = target: T1, FTO; assay: ELISA-based FTO inhibition assay (orthogonal control); type: biochemical; conditions: biotinylated m6A-RNA, 0-40 μM inhibitor; read-out: IC50 against FTO by ELISA assay
Method: The reaction mixture was then incubated with neutravidin coated 96-well plates overnight at 4° C., washed and blocked, incubated with m^6 A-specific antibody for 1 hour at room temperature, washed and blocked, and incubated with horseradish peroxidase-conjugated secondary antibody for 1 hour at room temperature. After extensive washing, the wells were treated with 3,3′,5,5′-tetramethylbenzidine (TMB) for 30 minutes at room temperature and the absorbance was measured at 390 nm. Absorbance was normalized to control wells for each concentration of inhibitor without cofactor 2-oxoglutarate to control for non-specific antibody binding, and the data were fit to a sigmoidal dose-response curve in GraphPad Prism 6.
The reaction mixture was then incubated with neutravidin coated 96-well plates (Pierce) overnight at 4° C., washed and blocked, incubated with m6A -specific primary antibody (Abcam ab151230, 1:400 dilution) for 1 hour at room temperature, washed and blocked (phosphate buffer saline with 0.1% tween-20 (PBST); blocked in 5% of non-fat milk in PBST buffer), and incubated with horseradish peroxidase-conjugated secondary antibody (Sigma-Aldrich, A6154, 1:5000 dilution) for 1 hour at room temperature. […]

[10] = target: T1, FTO; assay: Steady-state (Michaelis-Menten) inhibition kinetics of FTO; type: biochemical; conditions: velocity and double reciprocal plots, 0-40 μM inhibitor, substrate 0-10 μM
[11] = tested on: TS576 glioblastoma stem cells; assay: Neurosphere (tumorosphere) formation assay, TS576; type: cell-based, human; conditions: 2 days
Method: To understand the effects of our FTO inhibitors on the self-renewal properties of GSCs, tumorospheres cultured from the patient-derived GSC line TS576 were treated with 30 μM of FTO-04, FTO-10, FTO-11, or FTO-12 (FIG. 4-3AB; cell line gifted from the Furnari lab)^0.45, 46 The GSCs were cultured in sphere-forming assays for 24 hours, then treated with either inhibitors or DMSO control for 2 days. The size of the tumorospheres was calculated using ImageJ.
Early passaged GSCs were used to understand the efficacy of ALK-04 on the self-renewal capacity of GSCs by tumorsphere-formation assay as described earlier^10, 11. In brief, GSCs were seeded at 4×10^4 cells in 24 well plate and cultured for 3 days followed by treatment with ALK-04 inhibitors at 20 μM daily for 3 days. After 3 days of treatment the images of the tumorospheres were imaged with phase contrast microscope and size was measured with Image J, to understand the effects of drugs on the self-renewal of GSCs on sphere formation. This process was also repeated for healthy neural stem cells (hNSCs) treated daily with 20 μM ALK-04 for three days to assess the therapeutic ratio.

[12] = tested on: GBM-GSC-23 glioblastoma stem cells; assay: Neurosphere (tumorosphere) formation assay, GBM-GSC-23; type: cell-based, human; conditions: GSC-23, 20 μM, 2 days
[13] = tested on: GBM-6 glioblastoma stem cells; assay: Neurosphere (tumorosphere) formation assay, GBM-6; type: cell-based, human; conditions: GBM-6, 20 μM, 2 days
[14] = tested on: human neural stem cells (hNSC); assay: Neurosphere formation assay, healthy neural stem cells; type: cell-based; conditions: 20 μM, 2 days
[15] = tested on: m6A mRNA levels in TS576 cells; assay: m6A dot blot assay on poly(A)+ mRNA; type: cell-based, human; conditions: TS576 poly(A)+ mRNA, 2, 10, 50 ng, vs DMSO or shControl
Method: Next, we sought to determine if FTO-04 was able to alter m6A levels in purified mRNA from GSCs by m6A dot blot assay. TS576 cells were treated with 2, 10, and 50 ng shControl or shFTO to establish the relative change in m6A mRNA levels due to FTO knockdown. […] TS576 cells were then treated with 2, 10, and 50 ng of either DMSO or FTO-04 (FIG. 4-33B).
Polyadenylated mRNA were isolated from TS576 cells treated with either DMSO, FTO-04 (30 μM), and control (shControl) or FTO lentivirus (shFTO) knockdown samples by using Magnetic mRNA Isolation Kit (New England Biolabs, S1550S). Isolated mRNA was quantified, serially diluted and denatured at 95° C. for 3 min, then chilled on ice to prevent reformation of secondary structure of mRNA. Denatured mRNA samples were spotted on an Amersham Hybond-N^+ membrane (GE Healthcare, RPN3050B) and cross-linked to the membrane with UV radiation. After crosslinking the membrane was washed with phosphate buffer saline with 0.1% tween-20 (PBST) and blocked in 5% of non-fat milk in PBST buffer, and then incubated with anti-m^6 A antibody (1:1000; abcam) overnight at 4° C. The membrane was then washed as before and incubated in HRP-conjugated secondary antibodies for 1 h at room temperature. The membrane was then developed with Thermo ECL SuperSignal West Femto Maximum Sensitivity Substrate (Thermo Fisher Scientific).

[16] = TS576, 30 μM inhibitor, vs vehicle control
[17] = m6A7-Broccoli fluorescence assay, 0.250 μM FTO, inhibitor up to 40 μM, triplicate
[18] = m6A7-Broccoli fluorescence assay, 0.250 μM ALKBH5

T1 sequence (Q9C0B1 whole entry): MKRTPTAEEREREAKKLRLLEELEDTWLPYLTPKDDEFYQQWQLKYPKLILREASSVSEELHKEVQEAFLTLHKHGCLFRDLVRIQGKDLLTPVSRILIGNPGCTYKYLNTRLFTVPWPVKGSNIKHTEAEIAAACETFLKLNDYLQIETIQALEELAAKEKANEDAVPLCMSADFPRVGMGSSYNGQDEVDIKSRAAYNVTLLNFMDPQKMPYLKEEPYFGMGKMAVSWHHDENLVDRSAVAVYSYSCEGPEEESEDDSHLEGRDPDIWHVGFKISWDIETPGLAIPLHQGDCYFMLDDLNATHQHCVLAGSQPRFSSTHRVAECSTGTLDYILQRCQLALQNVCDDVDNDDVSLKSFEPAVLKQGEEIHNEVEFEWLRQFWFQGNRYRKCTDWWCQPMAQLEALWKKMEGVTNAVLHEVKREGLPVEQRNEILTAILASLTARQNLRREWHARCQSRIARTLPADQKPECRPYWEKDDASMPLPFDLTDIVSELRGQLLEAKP
T2 sequence (Q6P6C2 whole entry): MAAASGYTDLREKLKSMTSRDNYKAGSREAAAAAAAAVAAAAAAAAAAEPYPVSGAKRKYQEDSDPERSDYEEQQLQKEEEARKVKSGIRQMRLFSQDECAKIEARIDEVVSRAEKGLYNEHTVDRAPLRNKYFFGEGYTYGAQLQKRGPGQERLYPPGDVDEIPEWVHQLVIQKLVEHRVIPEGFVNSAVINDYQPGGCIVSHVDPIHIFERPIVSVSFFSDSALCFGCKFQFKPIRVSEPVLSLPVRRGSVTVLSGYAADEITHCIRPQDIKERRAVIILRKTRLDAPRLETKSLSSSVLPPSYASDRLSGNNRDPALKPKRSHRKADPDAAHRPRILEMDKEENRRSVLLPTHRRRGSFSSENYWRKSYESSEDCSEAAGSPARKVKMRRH

Question: With `CC(C)(C)OC(=O)N1CSC[C@@H]1CN` [ALK-04] as the compound, how does the IC50 ([1]; Table 700 compounds) read?
Answer: Its IC50 is over 40 µM.

Question: What about the IC50 ([2]; Table 700 compounds) of the same compound?
Answer: Its IC50 is 0.9 ± 0.7 µM.

Question: And the “mechanism of inhibition of ALKBH5” value [3]?
Answer: The value was “competitive inhibitor”.

Question: What about the B16 cell proliferation [4] of the same compound?
Answer: The B16 cell proliferation was “not significantly affected”.

Question: And the “B16 tumor growth during immunotherapy” value [5]?
Answer: Its value is “significantly reduced tumor growth”.

Question: And the elogD [6]?
Answer: Its elogD is 0.29.

Question: Which IC50 [7] does the source give for `Cc1noc(C)c1-c1cc(Cl)c(Nc2ccccc2C(=O)NO)c(Cl)c1` [FB23-2] here?
Answer: The IC50 was over 40 µM.

Question: And the “cellular concentration relative to FB23 (fold)” value [8]?
Answer: The value was 3-10.

Question: With `Cc1noc(C)c1-c1cc(Cl)c(Nc2ccccc2C(=O)O)c(Cl)c1` [FB23] as the compound, how does the IC50 [7] read?
Answer: The IC50 was over 40 µM.

Question: What does the source list for `COc1ncc(-c2ccc3nc(N)sc3c2)cn1` [FTO-04]?
Answer: potency against FTO relative to MA (fold) ([1]; IC50 compared with MA (12.5)): approximately 4; IC50 [9]: 2790 ± 1300 nM; mechanism of inhibition of FTO [10]: competitive inhibitor; also recorded: competitive mechanism of inhibition; size of tumorospheres ([11]; TS576, 20 μM): significantly decrease the size of tumorospheres; size of tumorospheres [11, 16]: significant reduction in size of the tumorospheres; size of tumorospheres [12]: significantly decrease the size of tumorospheres; size of tumorospheres [13]: significantly decrease the size of tumorospheres; neurosphere size / formation [14]: without impairing hNSC neurosphere growth; also recorded: no alteration in neurosphere size; also recorded: without significantly altering hNSC neurosphere formation; m6A mRNA levels (dot blot) [15]: increase m6A mRNA levels significantly; also recorded: increases m6A mRNA levels

Question: Which “selectivity between FTO and ALKBH5” value [1] does the source give for `Nc1ncc(-c2ccc3cc(O)ccc3c2)cn1` [FTO-10, 6-(2-aminopyrimidin-5-yl)naphthalen-2-ol] here?
Answer: Its value is “equivalent inhibitors towards both demethylases”.

Question: What about the IC50 [1, 17] of the same compound?
Answer: Its IC50 is 48.1 µM.

Question: What about the IC50 [2, 18] of the same compound?
Answer: The IC50 was 36.1 µM.

Question: What about the size of tumorospheres [11, 16] of the same compound?
Answer: Its size of tumorospheres is “significant reduction in size of the tumorospheres”.

Question: And the melting point?
Answer: Its melting point is 230 °C.

Question: Which results are given for `COc1ncc(-c2ccc3nc(C)ccc3c2)cn1` [FTO-11, 6-(2-methoxypyrimidin-5-yl)-2-methylquinoline]?
Answer: selectivity between FTO and ALKBH5 [1]: equivalent inhibitors towards both demethylases; IC50 [1, 17]: 11.3 µM; IC50 [2, 18]: 19.5 µM; size of tumorospheres [11, 16]: significant reduction in size of the tumorospheres; melting point: 230 °C

Question: What does the source list for `COc1ccc2cc(-c3cnc(N)nc3)ccc2c1` [FTO-12, 5-(6-methoxynaphthalen-2-yl)pyrimidin-2-amine]?
Answer: selectivity between FTO and ALKBH5 [1]: five-fold or higher; IC50 [1, 17]: 18.3 ± 1.7 µM; inhibition of ALKBH5 at the highest concentration measured ([2]; highest concentration measured): no measurable inhibition; IC50 [2, 18]: > 40 µM; size of tumorospheres [11, 16]: significant reduction in size of the tumorospheres; melting point: 230 °C
